Measured values reported in BindingDB's records for doi:10.1016/j.chembiol.2010.01.008 (University of Washington, 2010).
Values joined by “and” are separate entries in the source; they are usually repeats but may differ in a detail not shown here. Equal values may be shown once.

What was measured:
Settings in all cases: pH 7.5
[1] = target: Serine/threonine-protein kinase PAK 4 (Homo sapiens, UniProt O96013); experiment: In Vitro Activity Assay
Description: (§1) In vitro activity assay using various kinases.

[2] = target: Tyrosine-protein kinase CSK (Homo sapiens, UniProt P41240); experiment: In Vitro Activity Assay
Description: as §1

[3] = target: T1, Tyrosine-protein kinase ABL1 [1-999,E255V] (Homo sapiens, UniProt P00519, E255V); experiment: In Vitro Activity Assay
T1 construct: 1-999
Description: as §1

[4] = target: Dual specificity protein kinase CLK1 (Homo sapiens, UniProt P49759); experiment: In Vitro Activity Assay
Sequence of Dual specificity protein kinase CLK1 (P49759 whole entry): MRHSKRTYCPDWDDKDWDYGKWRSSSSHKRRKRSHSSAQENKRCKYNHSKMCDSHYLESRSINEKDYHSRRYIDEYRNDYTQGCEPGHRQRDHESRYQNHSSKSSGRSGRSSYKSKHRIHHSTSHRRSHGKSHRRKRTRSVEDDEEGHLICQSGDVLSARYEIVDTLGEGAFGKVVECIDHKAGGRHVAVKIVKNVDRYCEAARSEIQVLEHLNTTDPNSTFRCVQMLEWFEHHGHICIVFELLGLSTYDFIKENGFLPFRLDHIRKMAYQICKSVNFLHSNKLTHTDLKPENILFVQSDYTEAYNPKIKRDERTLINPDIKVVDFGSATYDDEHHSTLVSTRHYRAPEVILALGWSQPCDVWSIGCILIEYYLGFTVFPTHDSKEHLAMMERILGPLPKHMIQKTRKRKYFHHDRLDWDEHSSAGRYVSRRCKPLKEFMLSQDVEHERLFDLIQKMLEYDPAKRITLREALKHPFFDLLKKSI
Description: as §1

[5] = target: Proto-oncogene tyrosine-protein kinase Src (Gallus gallus, UniProt P00523); experiment: In Vitro Activity Assay
Description: as §1

[6] = target: Tyrosine-protein kinase ABL1 (Homo sapiens, UniProt P00519); experiment: In Vitro Activity Assay
Sequence of Tyrosine-protein kinase ABL1 (P00519 whole entry): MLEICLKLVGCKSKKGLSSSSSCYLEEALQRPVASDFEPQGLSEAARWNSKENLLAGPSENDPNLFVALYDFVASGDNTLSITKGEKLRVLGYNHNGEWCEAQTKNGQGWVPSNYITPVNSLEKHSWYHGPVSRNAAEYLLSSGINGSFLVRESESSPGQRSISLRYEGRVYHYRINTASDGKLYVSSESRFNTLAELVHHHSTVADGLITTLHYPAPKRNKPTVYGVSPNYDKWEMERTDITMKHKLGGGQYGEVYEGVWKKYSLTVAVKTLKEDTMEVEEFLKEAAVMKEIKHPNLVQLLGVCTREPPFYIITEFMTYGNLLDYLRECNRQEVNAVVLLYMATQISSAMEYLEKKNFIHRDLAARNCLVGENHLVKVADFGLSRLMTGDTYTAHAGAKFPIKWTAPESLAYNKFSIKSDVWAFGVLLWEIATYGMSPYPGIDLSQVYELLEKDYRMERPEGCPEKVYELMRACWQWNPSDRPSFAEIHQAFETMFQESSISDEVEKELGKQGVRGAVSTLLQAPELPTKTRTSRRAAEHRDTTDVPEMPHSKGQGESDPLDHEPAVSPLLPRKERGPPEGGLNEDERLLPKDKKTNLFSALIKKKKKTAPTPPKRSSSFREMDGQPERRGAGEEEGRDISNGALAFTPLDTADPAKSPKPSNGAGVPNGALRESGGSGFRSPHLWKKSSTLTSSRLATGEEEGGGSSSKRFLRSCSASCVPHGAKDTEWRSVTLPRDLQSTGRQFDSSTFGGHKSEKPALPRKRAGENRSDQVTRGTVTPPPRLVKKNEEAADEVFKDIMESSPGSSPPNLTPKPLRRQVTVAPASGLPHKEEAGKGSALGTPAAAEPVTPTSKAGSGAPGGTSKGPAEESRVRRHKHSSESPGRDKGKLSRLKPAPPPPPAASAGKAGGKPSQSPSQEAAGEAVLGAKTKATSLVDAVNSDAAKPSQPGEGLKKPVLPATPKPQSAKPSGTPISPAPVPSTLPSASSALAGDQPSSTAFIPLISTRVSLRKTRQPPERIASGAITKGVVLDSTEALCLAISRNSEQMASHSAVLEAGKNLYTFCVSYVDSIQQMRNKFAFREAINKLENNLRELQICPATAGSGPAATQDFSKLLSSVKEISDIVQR
Description: as §1

[7] = target: T2, Ephrin type-A receptor 3 [1-975] (Homo sapiens, UniProt P29320); experiment: In Vitro Activity Assay
T2 construct: 1-975
T2 sequence (P29320 whole entry): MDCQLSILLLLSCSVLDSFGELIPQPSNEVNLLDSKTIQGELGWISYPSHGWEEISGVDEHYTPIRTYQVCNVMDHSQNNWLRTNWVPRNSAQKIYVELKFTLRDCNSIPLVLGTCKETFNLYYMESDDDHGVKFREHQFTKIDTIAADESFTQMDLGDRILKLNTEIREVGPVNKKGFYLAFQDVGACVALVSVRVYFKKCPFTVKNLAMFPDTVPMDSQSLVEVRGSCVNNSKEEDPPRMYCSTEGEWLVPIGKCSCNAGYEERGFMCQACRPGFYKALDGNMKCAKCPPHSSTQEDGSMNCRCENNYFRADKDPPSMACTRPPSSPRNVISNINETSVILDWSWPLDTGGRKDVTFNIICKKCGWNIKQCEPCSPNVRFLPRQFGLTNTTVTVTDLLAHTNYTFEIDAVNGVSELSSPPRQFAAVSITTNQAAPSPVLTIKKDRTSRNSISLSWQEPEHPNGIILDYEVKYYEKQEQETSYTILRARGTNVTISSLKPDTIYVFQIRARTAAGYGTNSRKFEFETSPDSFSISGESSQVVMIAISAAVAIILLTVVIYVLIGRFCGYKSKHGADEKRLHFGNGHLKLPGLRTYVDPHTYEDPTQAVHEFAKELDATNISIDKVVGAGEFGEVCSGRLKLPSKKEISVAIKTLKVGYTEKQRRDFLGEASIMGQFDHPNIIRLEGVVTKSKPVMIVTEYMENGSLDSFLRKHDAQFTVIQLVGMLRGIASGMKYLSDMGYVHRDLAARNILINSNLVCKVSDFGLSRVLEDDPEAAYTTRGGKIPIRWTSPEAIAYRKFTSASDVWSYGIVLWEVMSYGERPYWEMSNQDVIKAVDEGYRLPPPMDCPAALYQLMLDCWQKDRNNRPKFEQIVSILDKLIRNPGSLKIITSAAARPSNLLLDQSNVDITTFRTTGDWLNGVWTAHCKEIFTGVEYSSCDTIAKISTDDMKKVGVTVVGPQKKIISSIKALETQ
Description: as §1

[8] = target: Tyrosine-protein kinase Lck (Homo sapiens, UniProt P06239); experiment: In Vitro Activity Assay
Sequence of Tyrosine-protein kinase Lck (P06239 whole entry): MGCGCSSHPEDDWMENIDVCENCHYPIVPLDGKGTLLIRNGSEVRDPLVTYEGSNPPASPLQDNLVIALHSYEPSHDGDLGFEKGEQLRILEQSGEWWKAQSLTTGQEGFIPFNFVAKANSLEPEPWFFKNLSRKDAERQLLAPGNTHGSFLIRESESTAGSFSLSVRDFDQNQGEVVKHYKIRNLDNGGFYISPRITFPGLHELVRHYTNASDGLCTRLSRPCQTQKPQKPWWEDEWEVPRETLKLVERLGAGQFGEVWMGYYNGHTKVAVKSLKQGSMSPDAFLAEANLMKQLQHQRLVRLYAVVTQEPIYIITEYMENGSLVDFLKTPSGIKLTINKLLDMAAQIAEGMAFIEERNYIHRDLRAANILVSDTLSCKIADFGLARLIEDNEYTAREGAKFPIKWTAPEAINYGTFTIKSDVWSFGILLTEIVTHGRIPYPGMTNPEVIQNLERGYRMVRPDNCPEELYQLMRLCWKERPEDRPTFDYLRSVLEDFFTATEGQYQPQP
Description: as §1

[9] = target: T3, Tyrosine-protein kinase ABL1 [1-999,Y253H] (Homo sapiens, UniProt P00519, Y253H); experiment: In Vitro Activity Assay
T3 construct: 1-999
Description: as §1

[10] = target: Mitogen-activated protein kinase 14 (Homo sapiens, UniProt Q16539); experiment: In Vitro Activity Assay
Sequence of Mitogen-activated protein kinase 14 (Q16539 whole entry): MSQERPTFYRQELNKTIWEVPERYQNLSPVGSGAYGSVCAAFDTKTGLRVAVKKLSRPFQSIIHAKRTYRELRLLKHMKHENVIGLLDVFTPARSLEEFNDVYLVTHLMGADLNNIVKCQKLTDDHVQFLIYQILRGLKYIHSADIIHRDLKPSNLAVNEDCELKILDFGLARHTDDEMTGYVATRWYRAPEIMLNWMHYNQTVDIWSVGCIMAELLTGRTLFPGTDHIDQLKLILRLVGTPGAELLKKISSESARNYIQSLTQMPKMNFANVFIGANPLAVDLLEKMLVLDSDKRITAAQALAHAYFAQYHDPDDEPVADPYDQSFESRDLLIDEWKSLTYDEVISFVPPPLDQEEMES
Description: as §1

[11] = target: T4, Mitogen-activated protein kinase kinase kinase 5 (Homo sapiens, UniProt Q99683); experiment: In Vitro Activity Assay
T4 sequence (Q99683 whole entry): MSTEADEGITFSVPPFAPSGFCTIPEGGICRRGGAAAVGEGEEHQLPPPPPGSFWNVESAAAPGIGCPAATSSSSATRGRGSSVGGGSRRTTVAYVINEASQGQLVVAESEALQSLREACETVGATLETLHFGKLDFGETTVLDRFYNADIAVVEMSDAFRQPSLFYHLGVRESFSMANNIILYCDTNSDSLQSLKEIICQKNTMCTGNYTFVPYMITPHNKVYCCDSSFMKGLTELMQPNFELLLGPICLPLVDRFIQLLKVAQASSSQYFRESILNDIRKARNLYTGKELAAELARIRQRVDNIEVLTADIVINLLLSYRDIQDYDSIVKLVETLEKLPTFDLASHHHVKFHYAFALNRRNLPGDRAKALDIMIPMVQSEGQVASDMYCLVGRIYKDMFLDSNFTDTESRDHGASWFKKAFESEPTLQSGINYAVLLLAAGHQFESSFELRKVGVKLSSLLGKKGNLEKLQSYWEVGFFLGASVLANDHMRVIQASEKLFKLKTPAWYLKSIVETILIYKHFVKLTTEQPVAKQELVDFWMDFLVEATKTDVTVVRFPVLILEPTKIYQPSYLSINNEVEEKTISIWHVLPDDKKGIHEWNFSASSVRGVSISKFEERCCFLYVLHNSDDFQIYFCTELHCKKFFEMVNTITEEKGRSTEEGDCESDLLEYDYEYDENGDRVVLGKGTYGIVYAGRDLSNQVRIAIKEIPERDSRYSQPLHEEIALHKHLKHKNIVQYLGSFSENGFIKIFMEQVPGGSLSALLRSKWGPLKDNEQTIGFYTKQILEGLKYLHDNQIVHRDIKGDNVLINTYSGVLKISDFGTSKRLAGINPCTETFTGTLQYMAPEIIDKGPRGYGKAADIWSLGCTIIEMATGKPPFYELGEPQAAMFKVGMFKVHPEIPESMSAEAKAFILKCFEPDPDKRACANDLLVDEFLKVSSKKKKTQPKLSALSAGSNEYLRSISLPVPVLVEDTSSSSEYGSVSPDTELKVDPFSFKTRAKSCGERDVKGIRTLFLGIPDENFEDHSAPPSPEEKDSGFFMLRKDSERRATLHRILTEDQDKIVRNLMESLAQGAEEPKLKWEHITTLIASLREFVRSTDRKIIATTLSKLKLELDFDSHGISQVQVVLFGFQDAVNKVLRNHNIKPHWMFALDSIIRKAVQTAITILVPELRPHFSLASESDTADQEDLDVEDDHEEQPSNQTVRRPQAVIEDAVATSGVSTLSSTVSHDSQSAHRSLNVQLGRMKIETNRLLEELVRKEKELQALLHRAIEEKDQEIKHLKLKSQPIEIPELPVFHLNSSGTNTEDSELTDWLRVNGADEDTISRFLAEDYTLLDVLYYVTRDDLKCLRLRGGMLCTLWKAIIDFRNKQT
Description: as §1

[12] = target: Tyrosine-protein kinase HCK (Homo sapiens, UniProt P08631); experiment: In Vitro Activity Assay
Sequence of Tyrosine-protein kinase HCK (P08631 whole entry): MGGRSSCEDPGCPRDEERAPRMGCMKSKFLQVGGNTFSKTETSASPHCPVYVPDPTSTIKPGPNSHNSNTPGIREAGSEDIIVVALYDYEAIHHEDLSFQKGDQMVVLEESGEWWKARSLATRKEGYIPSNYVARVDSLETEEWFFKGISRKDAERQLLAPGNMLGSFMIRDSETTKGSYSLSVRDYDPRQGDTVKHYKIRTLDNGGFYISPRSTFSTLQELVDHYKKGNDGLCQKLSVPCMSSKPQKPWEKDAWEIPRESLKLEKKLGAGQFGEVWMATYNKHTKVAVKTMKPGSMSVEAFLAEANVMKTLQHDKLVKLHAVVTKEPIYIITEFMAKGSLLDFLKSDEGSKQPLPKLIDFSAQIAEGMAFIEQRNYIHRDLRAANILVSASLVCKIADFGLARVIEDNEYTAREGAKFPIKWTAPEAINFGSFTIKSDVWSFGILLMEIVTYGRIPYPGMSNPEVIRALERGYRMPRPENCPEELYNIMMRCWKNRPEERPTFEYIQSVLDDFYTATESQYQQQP
Description: as §1

[13] = target: Serine/threonine-protein kinase PAK 5 (Homo sapiens) (UniProt Q9P286); experiment: In vitro activity assay using various kinases.
Sequence of Serine/threonine-protein kinase PAK 5 (Homo sapiens) (Q9P286 whole entry, looked up): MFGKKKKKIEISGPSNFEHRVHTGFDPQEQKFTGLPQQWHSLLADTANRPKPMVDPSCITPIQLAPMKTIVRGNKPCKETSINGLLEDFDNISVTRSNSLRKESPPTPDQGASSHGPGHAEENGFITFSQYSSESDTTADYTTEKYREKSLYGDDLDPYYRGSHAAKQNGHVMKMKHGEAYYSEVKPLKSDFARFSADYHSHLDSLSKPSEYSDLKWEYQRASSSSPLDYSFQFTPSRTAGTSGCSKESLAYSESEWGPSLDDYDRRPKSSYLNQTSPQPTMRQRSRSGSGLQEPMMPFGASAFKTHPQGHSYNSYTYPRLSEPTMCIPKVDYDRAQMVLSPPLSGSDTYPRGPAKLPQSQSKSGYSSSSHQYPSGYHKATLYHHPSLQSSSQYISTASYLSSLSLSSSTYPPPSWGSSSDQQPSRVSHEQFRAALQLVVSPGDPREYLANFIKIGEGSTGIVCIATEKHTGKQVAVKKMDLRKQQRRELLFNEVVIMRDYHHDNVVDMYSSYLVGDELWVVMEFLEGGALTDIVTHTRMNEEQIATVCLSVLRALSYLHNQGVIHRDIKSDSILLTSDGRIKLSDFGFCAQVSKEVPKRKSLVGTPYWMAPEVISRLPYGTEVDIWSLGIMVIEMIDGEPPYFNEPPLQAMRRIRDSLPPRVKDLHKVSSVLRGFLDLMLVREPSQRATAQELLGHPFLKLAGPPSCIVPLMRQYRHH

[14] = target: cAMP-dependent protein kinase catalytic subunit alpha (Homo sapiens, UniProt P17612); experiment: In Vitro Activity Assay
Description: as §1

[15] = target: T5, Interleukin-1 receptor-associated kinase 4 (Homo sapiens, UniProt Q9NWZ3); experiment: In Vitro Activity Assay
T5 sequence (Q9NWZ3 whole entry): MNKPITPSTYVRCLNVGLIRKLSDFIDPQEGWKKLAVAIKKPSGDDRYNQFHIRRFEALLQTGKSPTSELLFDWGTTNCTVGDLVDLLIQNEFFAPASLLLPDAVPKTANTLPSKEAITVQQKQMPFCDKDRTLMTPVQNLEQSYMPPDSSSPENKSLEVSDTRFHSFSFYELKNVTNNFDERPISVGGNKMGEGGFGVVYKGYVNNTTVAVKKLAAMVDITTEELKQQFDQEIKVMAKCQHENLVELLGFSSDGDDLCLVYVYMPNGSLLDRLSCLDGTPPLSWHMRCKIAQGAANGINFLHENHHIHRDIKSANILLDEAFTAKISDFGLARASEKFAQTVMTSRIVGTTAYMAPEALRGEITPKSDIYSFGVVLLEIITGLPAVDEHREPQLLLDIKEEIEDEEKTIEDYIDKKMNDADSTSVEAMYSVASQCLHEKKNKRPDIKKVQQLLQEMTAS
Description: as §1

[16] = target: Mitogen-activated protein kinase 1 (Homo sapiens, UniProt P28482); experiment: In Vitro Activity Assay
Sequence of Mitogen-activated protein kinase 1 (P28482 whole entry): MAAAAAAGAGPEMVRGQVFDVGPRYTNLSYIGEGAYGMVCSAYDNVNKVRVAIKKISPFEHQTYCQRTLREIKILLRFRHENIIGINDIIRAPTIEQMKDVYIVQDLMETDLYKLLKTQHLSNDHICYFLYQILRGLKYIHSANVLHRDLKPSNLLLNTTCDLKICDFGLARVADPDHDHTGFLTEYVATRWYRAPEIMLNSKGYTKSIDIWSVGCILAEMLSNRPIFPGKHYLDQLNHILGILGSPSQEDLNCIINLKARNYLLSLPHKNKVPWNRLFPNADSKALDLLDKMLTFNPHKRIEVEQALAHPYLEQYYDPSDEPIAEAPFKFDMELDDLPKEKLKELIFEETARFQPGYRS
Description: as §1

Sequence of Serine/threonine-protein kinase PAK 4 (O96013 whole entry): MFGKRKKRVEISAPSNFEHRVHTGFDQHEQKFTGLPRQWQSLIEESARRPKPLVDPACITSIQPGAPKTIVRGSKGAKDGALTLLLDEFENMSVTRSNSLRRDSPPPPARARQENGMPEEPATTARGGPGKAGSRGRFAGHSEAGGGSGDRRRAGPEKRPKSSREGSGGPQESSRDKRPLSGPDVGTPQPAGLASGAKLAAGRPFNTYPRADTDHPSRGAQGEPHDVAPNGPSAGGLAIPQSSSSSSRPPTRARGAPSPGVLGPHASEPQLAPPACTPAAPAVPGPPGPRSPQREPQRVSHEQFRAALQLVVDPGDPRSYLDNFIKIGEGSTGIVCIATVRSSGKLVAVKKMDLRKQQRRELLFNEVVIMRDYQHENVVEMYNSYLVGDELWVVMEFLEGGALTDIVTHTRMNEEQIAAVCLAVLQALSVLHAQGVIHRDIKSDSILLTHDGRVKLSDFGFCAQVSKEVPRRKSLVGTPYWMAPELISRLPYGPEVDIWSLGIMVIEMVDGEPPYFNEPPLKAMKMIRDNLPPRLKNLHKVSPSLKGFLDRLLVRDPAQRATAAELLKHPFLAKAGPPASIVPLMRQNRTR

IC50 [5] [nM] | IC50 [10] [nM] | IC50 [14] [nM] | IC50 [1] [nM] | IC50 [15] [nM] | IC50 [2] [nM] | IC50 [4] [nM] | IC50 [6] [nM] | IC50 [8] [nM] | IC50 [16] [nM] | IC50 [11] [nM] | IC50 [12] [nM] | IC50 [13] [nM] | Structure (SMILES) | other results
25.4 | 25.5 |  |  |  |  |  |  |  |  |  |  |  | Cc1ccc(NC(=O)c2cccc(C(F)(F)F)c2)cc1Nc1ncccc1-c1ncnc(Nc2ccc(OCCNC(=O)CCCCNC(=O)CCC3=[N+]4B(F)n5c(C)cc(C)c5C=C4C=C3)cc2)n1 [BODIPY-labeled probe, 4a] | Kd [1]: > 1000 nM; Kd [2]: 17 nM; Kd [3]: 45 nM; Kd [4]: > 1000 nM; Kd [5]: 13 nM and 11 nM; Kd [6]: 9.9 nM; Kd [7]: 27 nM; Kd [8]: 20 nM; Kd [9]: 9.4 nM; Kd [10]: 35 nM; Kd [11]: > 1000 nM; Kd [12]: 8.7 nM; Kd [13]: > 1000 nM
3.3 | < 13 | > 10000 | > 10000 | > 10000 | 16.3 | > 10000 | 6.6 | < 10 | > 10000 | > 10000 | 9.6 | > 10000 | Cc1ccc(NC(=O)c2cccc(C(F)(F)F)c2)cc1Nc1ncccc1-c1ncnc(Nc2ccc(OCCNC(=O)COCCOCCOCCOCCN)cc2)n1 [Amine compound, 12a] | 
5.7 | < 13 | > 10000 | > 10000 | > 10000 | 140 | > 10000 | 6.6 | < 10 | > 10000 | > 10000 | 6.3 | > 10000 | Cc1ccc(NC(=O)c2cccc(C(F)(F)F)c2)cc1Nc1ncccc1-c1cc(Nc2ccc(OCCNC(=O)COCCOCCOCCOCCN)cc2)ncn1 [Amine compound, 13a] | 
